Among the data in patent US20120270237A9, “METHODS FOR THE IDENTIFICATION OF KINASE INTERACTING MOLECULES AND FOR THE PURIFICATION OF KINASE PROTEINS” (Cellzone AG, priority 2009, published 2012) are inhibition and Competition % values, retold here.

Holding throughout (experiment): Kinobeads competition binding, L-363 cell lysate
Common to all, as to design: endogenous in cells
Common to all, as to conditions: 10 μM free compound, L-363 lysate

The target in one experiment is ARG (Homo sapiens, UniProt P42684). On the procedure:
(§1) To one aliquot of cell lysate 10 μM of the free compound (FIG. 3, CZC31326) was added and allowed to bind to proteins in the lysate. Then the affinity matrix with the immobilized compound was added to capture proteins that were not interacting with the previously added free compound. Beads were separated from the lysate and bead bound proteins were eluted in SDS sample buffer and subsequently separated by SDS-Polyacrylamide gel electrophoresis (FIG. 8). Suitable gel bands were cut out and subjected to in-gel proteolytic digestion with trypsin. The second lysate aliquot was processed identically, however no free compound was added (DMSO solvent control). Peptides originating from samples 1 and 2 were labeled with iTRAQ reagents (iTRAQ 114 and iTRAQ 117) and the combined samples were analyzed with a nano-flow liquid chromatography system coupled online to a tandem mass spectrometer (LC-MS/MS) experiment followed by iTRAQ reporter ion quantification in the MS/MS spectra as described in Example 2.
(§2) For this experiment the human plasma cell leukaemia line L-363 was used (German Collection of Microorganisms and Cell Cultures, DSMZ number ACC49, Braunschweig, Germany). Cells were treated for three hours with 20 μM of the proteasome inhibitor MG132 (Z-Leu-Leu-Leu-al, Sigma C2211) prior to cell harvesting.

For another experiment, the target named is MAP2K3 (Homo sapiens, UniProt P46734). On the procedure:
as §1, §2

Another experiment concerns the target Erk2 (Homo sapiens, UniProt P28482). As for the experimental part:
as §1, §2

A further experiment concerns the target TYK2 (Homo sapiens, UniProt P29597). On the procedure:
as §1, §2

In a further experiment the target is T1, PHKg2 (Homo sapiens, UniProt P15735).
T1 sequence (P15735 1-406): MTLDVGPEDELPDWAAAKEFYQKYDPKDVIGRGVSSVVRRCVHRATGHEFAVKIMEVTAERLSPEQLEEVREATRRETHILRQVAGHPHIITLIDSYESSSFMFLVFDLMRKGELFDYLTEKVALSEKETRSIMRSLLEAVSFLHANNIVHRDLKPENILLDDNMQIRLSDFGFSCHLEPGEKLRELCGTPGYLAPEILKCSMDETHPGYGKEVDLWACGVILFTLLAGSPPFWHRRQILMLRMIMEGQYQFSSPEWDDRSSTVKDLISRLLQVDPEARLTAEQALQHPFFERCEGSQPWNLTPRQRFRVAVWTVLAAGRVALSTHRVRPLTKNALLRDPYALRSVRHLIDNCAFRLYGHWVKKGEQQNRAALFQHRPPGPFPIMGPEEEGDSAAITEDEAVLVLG
On the procedure:
as §1, §2

The next experiment concerns the target T2, MST1 (Homo sapiens, UniProt Q13043).
T2 sequence (Q13043 1-487): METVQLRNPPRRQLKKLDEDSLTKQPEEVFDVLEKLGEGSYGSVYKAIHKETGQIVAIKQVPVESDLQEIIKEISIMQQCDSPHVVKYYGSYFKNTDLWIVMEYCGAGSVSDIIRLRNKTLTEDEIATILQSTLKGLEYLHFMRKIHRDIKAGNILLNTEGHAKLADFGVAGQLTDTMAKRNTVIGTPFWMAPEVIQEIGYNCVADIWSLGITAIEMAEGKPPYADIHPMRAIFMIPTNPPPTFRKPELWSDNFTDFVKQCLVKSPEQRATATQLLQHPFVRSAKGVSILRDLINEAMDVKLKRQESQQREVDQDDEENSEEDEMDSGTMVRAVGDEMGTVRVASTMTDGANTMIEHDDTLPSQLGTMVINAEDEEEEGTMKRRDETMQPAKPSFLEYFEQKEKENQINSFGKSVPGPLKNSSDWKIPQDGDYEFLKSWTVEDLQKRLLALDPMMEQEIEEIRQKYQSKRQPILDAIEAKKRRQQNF
On the procedure:
as §1, §2

A further experiment addresses T3, AurA (Homo sapiens, UniProt O14965).
T3 sequence (O14965 1-403): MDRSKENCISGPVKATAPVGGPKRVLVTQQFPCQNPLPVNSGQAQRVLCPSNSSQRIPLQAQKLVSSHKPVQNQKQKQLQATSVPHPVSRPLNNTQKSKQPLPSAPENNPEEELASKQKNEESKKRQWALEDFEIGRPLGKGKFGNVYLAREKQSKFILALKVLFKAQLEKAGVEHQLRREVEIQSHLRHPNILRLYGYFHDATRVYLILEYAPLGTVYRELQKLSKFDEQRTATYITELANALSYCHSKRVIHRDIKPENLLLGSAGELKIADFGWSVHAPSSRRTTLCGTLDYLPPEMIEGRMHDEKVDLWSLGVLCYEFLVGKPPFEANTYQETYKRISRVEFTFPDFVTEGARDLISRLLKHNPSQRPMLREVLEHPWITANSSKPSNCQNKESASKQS
As for the experimental part: as §1, §2

One may read the inhibition as the share of the control response that was lost under treatment. The low end stands for a response near the control, the high end for a response far below the control.

Each structure is given as a SMILES string.

MAP2K3, sequence (P46734 whole entry): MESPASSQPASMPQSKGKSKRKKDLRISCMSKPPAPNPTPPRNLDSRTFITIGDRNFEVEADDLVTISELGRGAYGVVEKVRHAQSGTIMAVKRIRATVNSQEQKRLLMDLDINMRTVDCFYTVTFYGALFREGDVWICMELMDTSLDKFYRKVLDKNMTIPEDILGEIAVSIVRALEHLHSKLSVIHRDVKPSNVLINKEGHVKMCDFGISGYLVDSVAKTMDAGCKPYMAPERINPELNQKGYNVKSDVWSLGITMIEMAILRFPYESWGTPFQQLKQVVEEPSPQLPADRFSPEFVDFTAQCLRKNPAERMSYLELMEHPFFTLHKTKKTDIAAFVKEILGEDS
Erk2, sequence (P28482 whole entry): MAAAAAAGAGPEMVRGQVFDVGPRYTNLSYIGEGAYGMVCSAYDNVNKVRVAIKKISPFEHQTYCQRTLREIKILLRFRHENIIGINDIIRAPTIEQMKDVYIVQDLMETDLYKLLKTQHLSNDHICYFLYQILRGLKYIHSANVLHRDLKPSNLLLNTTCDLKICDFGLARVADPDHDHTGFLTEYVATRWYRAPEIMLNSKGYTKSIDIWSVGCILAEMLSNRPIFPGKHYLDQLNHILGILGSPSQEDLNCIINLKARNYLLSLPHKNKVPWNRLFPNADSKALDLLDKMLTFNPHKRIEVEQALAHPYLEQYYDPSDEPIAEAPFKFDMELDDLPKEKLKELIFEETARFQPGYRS
TYK2, sequence (P29597 whole entry): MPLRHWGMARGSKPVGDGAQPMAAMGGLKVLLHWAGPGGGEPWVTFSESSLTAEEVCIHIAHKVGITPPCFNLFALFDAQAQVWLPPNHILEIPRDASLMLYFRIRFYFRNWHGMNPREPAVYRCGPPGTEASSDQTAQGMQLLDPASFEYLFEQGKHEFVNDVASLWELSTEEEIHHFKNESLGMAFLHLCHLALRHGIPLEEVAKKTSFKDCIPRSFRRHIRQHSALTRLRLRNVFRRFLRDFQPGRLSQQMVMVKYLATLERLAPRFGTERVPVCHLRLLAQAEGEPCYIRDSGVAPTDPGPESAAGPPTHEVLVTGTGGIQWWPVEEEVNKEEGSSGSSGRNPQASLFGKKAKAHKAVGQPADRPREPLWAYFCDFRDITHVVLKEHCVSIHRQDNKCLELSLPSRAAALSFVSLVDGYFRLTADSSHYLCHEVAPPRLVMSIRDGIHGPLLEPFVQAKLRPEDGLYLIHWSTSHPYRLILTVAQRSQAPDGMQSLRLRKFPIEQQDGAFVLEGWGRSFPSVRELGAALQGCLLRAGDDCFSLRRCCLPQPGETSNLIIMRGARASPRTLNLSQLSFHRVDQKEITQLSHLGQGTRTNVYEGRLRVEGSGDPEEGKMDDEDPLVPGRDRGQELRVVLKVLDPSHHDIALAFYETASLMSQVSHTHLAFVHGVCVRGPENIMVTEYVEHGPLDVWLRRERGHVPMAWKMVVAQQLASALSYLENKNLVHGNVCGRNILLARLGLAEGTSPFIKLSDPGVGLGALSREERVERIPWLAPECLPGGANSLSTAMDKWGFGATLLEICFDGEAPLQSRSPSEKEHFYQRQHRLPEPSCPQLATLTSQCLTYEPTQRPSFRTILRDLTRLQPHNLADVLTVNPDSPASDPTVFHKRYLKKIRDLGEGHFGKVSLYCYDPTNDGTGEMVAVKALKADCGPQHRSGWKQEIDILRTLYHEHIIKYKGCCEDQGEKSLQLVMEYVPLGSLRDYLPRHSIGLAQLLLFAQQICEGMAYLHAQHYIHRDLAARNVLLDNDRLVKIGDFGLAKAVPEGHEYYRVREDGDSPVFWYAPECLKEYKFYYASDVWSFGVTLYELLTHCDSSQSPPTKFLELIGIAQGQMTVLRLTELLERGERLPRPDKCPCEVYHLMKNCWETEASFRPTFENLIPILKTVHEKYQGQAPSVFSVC
ARG, sequence (P42684 whole entry): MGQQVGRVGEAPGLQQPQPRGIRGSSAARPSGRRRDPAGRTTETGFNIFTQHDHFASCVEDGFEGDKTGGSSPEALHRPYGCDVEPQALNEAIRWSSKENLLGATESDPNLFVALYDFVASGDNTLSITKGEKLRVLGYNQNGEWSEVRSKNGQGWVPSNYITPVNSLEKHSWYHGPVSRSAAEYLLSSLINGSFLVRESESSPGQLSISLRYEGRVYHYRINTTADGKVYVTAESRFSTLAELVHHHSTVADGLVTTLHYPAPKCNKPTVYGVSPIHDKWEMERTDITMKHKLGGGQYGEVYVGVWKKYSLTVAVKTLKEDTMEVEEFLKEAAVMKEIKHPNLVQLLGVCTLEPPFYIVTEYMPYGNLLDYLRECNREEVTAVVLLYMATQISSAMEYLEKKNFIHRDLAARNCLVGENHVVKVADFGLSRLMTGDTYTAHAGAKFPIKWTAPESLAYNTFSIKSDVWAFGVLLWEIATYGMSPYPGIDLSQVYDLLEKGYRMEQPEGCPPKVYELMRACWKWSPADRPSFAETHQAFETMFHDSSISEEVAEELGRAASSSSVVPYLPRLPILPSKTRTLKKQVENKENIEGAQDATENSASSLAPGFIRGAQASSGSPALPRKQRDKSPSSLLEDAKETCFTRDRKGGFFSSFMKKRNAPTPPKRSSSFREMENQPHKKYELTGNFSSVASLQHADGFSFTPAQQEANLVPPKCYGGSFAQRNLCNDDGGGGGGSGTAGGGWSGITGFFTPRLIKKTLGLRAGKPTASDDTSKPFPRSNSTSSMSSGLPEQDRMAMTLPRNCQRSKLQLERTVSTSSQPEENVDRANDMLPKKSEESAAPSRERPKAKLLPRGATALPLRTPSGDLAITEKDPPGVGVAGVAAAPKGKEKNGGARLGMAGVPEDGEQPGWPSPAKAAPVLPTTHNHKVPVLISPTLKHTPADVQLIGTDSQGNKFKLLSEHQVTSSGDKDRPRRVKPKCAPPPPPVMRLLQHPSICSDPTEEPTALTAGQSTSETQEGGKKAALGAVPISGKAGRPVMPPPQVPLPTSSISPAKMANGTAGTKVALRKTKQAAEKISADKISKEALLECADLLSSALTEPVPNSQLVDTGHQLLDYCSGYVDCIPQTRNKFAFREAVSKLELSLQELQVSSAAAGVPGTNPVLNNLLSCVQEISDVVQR

In the case of `CS(=O)(=O)Nc1ccccc1Nc1nc(Nc2cccc(OCCN)c2)ncc1Cl` [CZC31326, N-(2-(2-(3-(2-aminoethoxy)phenylamino)-5-chloropyrimidin-4-ylamino)phenyl)methanesulfonamide], the inhibition at 10 µM was found to be 95.8% at ARG; 93.9% at MAP2K3; 74.4% on Erk2; 94.1% on PHKg2; 97% at AurA. For the same compound, the values for the Competition % on TYK2 and on MST1 were 96.9% and 98.3%, respectively.
